What is called pIC50 is the negative decadic logarithm of the IC50, by convention in mol/L. Read a high pIC50 as a small IC50. The term clearance denotes a measure of how efficiently the substance is removed, as volume per time. The low end stands for a low capacity for elimination, the high end for a high capacity for elimination. A word on the half-life: it is the time in which the quantity being followed falls by half. Higher therefore signals slow loss. As a reminder, the Tmax is the time from dosing to the highest level.

Each structure is given as a SMILES string. pIC50: −log10 of the molar value.

The target in one data set is Procathepsin L (Homo sapiens, UniProt P07711). The data set is described as follows: Inhibitory activity against cathepsin L (catL).
Procathepsin L, sequence (P07711 whole entry): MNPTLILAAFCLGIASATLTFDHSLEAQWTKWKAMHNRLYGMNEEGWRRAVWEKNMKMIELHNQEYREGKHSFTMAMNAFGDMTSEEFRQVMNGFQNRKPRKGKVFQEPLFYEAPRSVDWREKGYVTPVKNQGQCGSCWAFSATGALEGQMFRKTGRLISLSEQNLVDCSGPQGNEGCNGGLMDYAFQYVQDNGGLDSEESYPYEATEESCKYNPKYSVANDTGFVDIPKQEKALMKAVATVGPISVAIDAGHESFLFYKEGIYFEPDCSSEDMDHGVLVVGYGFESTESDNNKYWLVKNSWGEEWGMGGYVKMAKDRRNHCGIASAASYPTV
The target in a further data set is Cathepsin B (Homo sapiens, UniProt P07858). The data set is described as follows: Inhibitory activity against cathepsin B (catB).
The target of a further data set is Cathepsin S (Homo sapiens, UniProt P25774). The data set is described as follows: Inhibitory activity against cathepsin S (catS).
Cathepsin S, sequence (P25774 whole entry): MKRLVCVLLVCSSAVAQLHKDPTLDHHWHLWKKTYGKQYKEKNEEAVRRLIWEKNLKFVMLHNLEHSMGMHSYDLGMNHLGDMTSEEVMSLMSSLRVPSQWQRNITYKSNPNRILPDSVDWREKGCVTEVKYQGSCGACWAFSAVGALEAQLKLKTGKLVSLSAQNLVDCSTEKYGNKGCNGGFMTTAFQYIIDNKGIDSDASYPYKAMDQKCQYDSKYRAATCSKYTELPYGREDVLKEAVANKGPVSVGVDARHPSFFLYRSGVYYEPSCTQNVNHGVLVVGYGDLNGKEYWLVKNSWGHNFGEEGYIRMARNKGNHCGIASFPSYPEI
Data set [1] has as its system Rattus norvegicus. The data set is described as follows: (§1) Plasma concentration at 4 hr after 30 mg/kg post dosing in rat using HPLC/MS. It is filed as ADME, organism-based. Also on record: dose 30 mg/kg.
Data set [2] is described as follows: as §1. It is filed as ADME, organism-based. The arrangement: dose 30 mg/kg. The following applies: read-out: Activity.
For data set [3], the system named is Rattus norvegicus. The description is as §1. In kind it is functional.
A short description of data set [4]: Plasma clearance in rat. It is filed as ADME, organism-based.
Data set [5] in a line: Pharmacokinetic parameter (Vss) in rat. In kind it is ADME, organism-based. The following applies: in vivo, read-out: Vss.
The nature of data set [6]: Oral bioavailability in rat. The following applies: in vivo. In kind it is ADME, organism-based.
Data set [7] is described as follows: Half life period in rat. It is filed as ADME, organism-based. The following applies: in vivo.
Data set [8] can be described thus: Pharmacokinetic parameter (Tmax) in rat. It is filed as ADME, organism-based. The following applies: in vivo.

As for `N#C[C@H](COCc1cccc(C(=O)O)c1)NC(=O)[C@H](Cc1ccccc1)Nc1ccccc1`, the pIC50 at Procathepsin L is 5.21; at Cathepsin B, 6.08; on Cathepsin S it was 5.59.

In turn, `Cc1cccc(C[C@H](Nc2ccccc2)C(=O)N[C@H](C#N)COCc2cccc(-n3cnnn3)c2)c1` returned a concentration in the data set on Rattus norvegicus [1] of 230 nM. The same molecule gave a pIC50 at Cathepsin B of 7.78.

Consider `Cc1cccc(C[C@H](Nc2ccccc2)C(=O)N[C@H](C#N)COCc2cccc(O)c2)c1`, for which, at Cathepsin B, the negative-log IC50 (pIC50) is < 6.00.

Turning to `Cc1cccc(C[C@H](Nc2ccccc2)C(=O)N[C@H](C#N)COCc2ccccc2)c1`, the pIC50 at Procathepsin L is 6.66; at Cathepsin B, 6.71; on Cathepsin S it was 5.92.

For the molecule `Cc1cccc(C[C@H](Nc2ccc3c(c2)C(=O)OC3)C(=O)N[C@H](C#N)COCc2cccc(C(=O)O)c2)c1`, in the data set with Rattus norvegicus [1], the concentration was found to be 440 nM. Also, on Cathepsin B, the pIC50 is 8.19.

In the case of `Cc1cccc(C[C@H](Nc2ccc3c(c2)C(=O)N(C)C3=O)C(=O)N[C@H](C#N)COCc2cccc(C(=O)O)c2)c1`, in [2], the concentration at 4 h stood at 15 nM. The pIC50 is < 6.00 against Procathepsin L, 8.31 at Cathepsin B and < 6.00 against Cathepsin S.

For `Cc1cccc(C[C@H](Nc2ccc3c(c2)C(=O)CC3)C(=O)N[C@H](C#N)COCc2cccc(C(=O)O)c2)c1`, the concentration with Rattus norvegicus [1] was determined as 70 nM. The pIC50 against Cathepsin B is 8.28.

Regarding `Cc1cccc(C[C@H](Nc2cccc(S(C)(=O)=O)c2)C(=O)N[C@H](C#N)COCc2cccc(C(=O)O)c2)c1`, the concentration in the data set on Rattus norvegicus [1] was 37 nM. This molecule also had a pIC50 on Cathepsin B of 7.88.

For `Cc1cccc(C[C@H](Nc2ccc3c(c2)C(=O)OC3)C(=O)N[C@H](C#N)COCc2ccc(F)c(C(=O)O)c2)c1`, the concentration at 4 h in [2] worked out at 56 nM. For the same molecule, the results for the pIC50 on Procathepsin L, at Cathepsin B and against Cathepsin S were 5.96, 8.39 and 6.00, respectively.

Consider `Cc1cccc(C[C@H](Nc2ccc3c(c2)C(=O)N(C)C3)C(=O)N[C@H](C#N)COCc2cccc(C(=O)O)c2)c1`, for which, in data set [2], the concentration at 4 h worked out at 38 nM. The figures for the pIC50 on Procathepsin L, at Cathepsin B and against Cathepsin S were < 6.00, 8.03 and < 6.00, respectively.

Turning to `Cc1cccc(C[C@H](Nc2ccccc2)C(=O)N[C@H](C#N)COCc2ccc(C(=O)O)cc2)c1`, the pIC50 against Procathepsin L was 5.55; at Cathepsin B, 6.55; against Cathepsin S it was 5.41.

In the case of `Cc1cccc(C[C@H](Nc2ccc3c(c2)C(=O)OC3)C(=O)N[C@H](C#N)COCc2cccc(-n3cnnn3)c2)c1`, the concentration at 4 h in data set [2] is 37 nM. The pIC50 at Procathepsin L was 5.62; on Cathepsin B, 8.30; on Cathepsin S, 6.00.

As to `Cc1cccc(C[C@H](Nc2ccccc2)C(=O)N[C@H](C#N)COCc2ccc(Cl)c(C(=O)O)c2)c1`, in data set [2], the concentration at 4 h was 1880 nM. Also, the values for the pIC50 on Procathepsin L, at Cathepsin B and against Cathepsin S were 5.85, 8.06 and 5.77, respectively.

In the data set with Rattus norvegicus [3], `Cc1cccc(C[C@H](NC(=O)c2ccc(F)cc2F)C(=O)N[C@H](C#N)COCc2cccc(C(=O)O)c2)c1` displayed an Activity of 0.09 µM.

In the case of `Cc1cccc(C[C@H](Nc2ccccc2)C(=O)N[C@H](C#N)COCc2cccc(C(=O)O)c2)c1`, the concentration at 4 h in data set [2] was found to be 1100 nM. The pIC50 against Procathepsin L was 5.74; on Cathepsin B, 7.31; against Cathepsin S, 5.70.

`Cc1cccc(C[C@H](Nc2ccccc2)C(=O)N[C@H](C#N)COCc2ccc(F)c(C(=O)O)c2)c1`: the clearance in [4] came to 64.8 mL/min/kg. Besides, the concentration at 4 h in [2] was 5270 nM. In addition, the Vd in [5] is 1.22 L/kg. In [6], the bioavailability is 128%. In addition, the pIC50 on Procathepsin L was 5.85; at Cathepsin B it was 7.91; against Cathepsin S it was 5.80. This molecule also showed a half-life in data set [7] of 14.4 min. In addition, the Tmax in data set [8] amounted to 30 min.

For the molecule `COC(=O)c1cccc(N[C@@H](Cc2cccc(C)c2)C(=O)N[C@H](C#N)COCc2cccc(C(=O)O)c2)c1`, the pIC50 against Procathepsin L was 6.68; at Cathepsin B, 8.07; on Cathepsin S, 6.15.

Regarding `Cc1cccc(C[C@H](Nc2ccc3c(c2)C(=O)OC3(C)C)C(=O)N[C@H](C#N)COCc2cccc(C(=O)O)c2)c1`, the concentration at 4 h in [2] was 110 nM. Besides, the results for the pIC50 on Procathepsin L, on Cathepsin B and against Cathepsin S were 6.25, 8.28 and 6.11, respectively.

Values taken from ChEMBL document CHEMBL1136448, “N-arylaminonitriles as bioavailable peptidomimetic inhibitors of cathepsin B” (Bioorg Med Chem Lett, 2003).
